Results: article PMC11218446, “Antibacterial efficacy and membrane mechanism of action of the Serratia-derived non-ionic lipopeptide, serrawettin W2-FL10” (Microbiology Spectrum, 2024)
Several values for one entry are separate records, joined by “and”; a condition that tells them apart may be missing. Identical values can stand only once.

Columns and labels:
[1] = tested on: E. faecium S1; assay: Broth microdilution assay (OD 600 nm); type: cell-based, Enterococcus faecium
Description: (§1) Serrawettin W2-FL10 (95% pure) was tested for antibacterial activity using a broth microdilution susceptibility assay ([6]), with melittin included as an antibiotic control. The serrawettin W2-FL10 was prepared in 70% MeCN to 1.00 mg/mL, from which aliquots were prepared using 70% MeCN to a concentration of 50 µg/mL or 500 µg/mL, while aliquots of melittin were prepared using analytical quality H2O to 128 µg/mL. Fifty microliters of the respective W2-FL10 aliquots or melittin were dispensed into a clear 96-well plate and a microdilution (in 70% MeCN for W2-FL10 or analytical quality H2O for melittin) was performed within the plate. The plate was air-dried to remove the solvent and placed in a desiccator with chloroform for 20 min for sterilization.
(§2) All the cultures (inoculated into 5 mL MHB, or 5 mL TSB for Listeria and Enterococcus strains) were incubated at 37°C to reach an optical density (OD) of 0.4 at 600 nm (∼10^7 CFU/mL). A 1:20 dilution of the test strain (final concentration of ∼10^5 CFU/mL) was prepared and 100 µL was dispensed into each well (final concentration of W2-FL10 at 1.5–125 µg/mL and melittin at 2–32 µg/mL). Sterile broth and the OD-adjusted inoculum were included as positive controls, while sterile broth (no inoculum) was included as a negative control. The 96-well plate was incubated for 18 h at 37°C. All the tests were performed in triplicate, with independent duplicates. Following incubation, the absorbance was measured using a microtiter plate reader at 600 nm. The 50% growth inhibition concentration (IC50) was determined using GraphPad Prism version 5 for Windows [GraphPad Software, San Diego, USA (www.graphpad.com)]. A sigmodal curve with variable slope was fitted to each set of dose-repose data according to Rautenbach et al. ([17]) using equation (1):
(§3) (1) Y=bottom+(top−bottom)/1+10^logIC50×Activity slope
(§4) The “top” and “bottom” are the maximum and minimum inhibition responses, respectively, for a particular set of dose-response data, while the activity slope is related to the Hill slope of a sigmoidal binding curve ([16]). […] The MIC value was determined for each set of dose-response data as the lowest concentration, resulting in ≥90% inhibition of the target cell growth. In addition to the MIC and IC50 inhibition parameters, an inhibition concentration factor (ICF), was calculated as outlined in Rautenbach et al. ([17]). The ICF is indicative of the concentration increase from the highest concentration where no activity is observed to the MIC of a compound.

[2] = tested on: E. faecalis S1; assay: Broth microdilution assay (OD 600 nm); type: cell-based, Enterococcus faecalis
Description: as §1, §2, §3, §4

[3] = tested on: E. faecalis ATCC 7080; assay: Broth microdilution assay (OD 600 nm); type: cell-based, Enterococcus faecalis
Description: as §1, §2, §3, §4

[4] = tested on: L. monocytogenes ATCC 13932; assay: Broth microdilution assay (OD 600 nm); type: cell-based, Listeria monocytogenes
Description: as §1, §2, §3, §4

[5] = tested on: S. aureus RN4220; assay: Membrane permeability assay, propidium iodide; type: cell-based, Staphylococcus aureus; conditions: 25 µg/mL
Description: (§5) The membrane permeability capabilities of the W2-FL10 against the S. aureus strains were determined using PI ([56]). Briefly, black 96-well plates were prepared with W2-FL10 at 6.25, 12.5, and 25 µg/mL, while 4–16 µg/mL of melittin was used as a positive permeability control, and the plates were dried as described in the “Antibacterial activity: broth microdilution assay” section. The S. aureus strains were inoculated into MHB, grown to mid-log phase (OD600 of 0.5–0.6), and diluted to OD600 of 0.3. PI (stock concentration of 1 mg/mL in analytical quality H2O) was added to the cell suspension to a final concentration of 10 µg/mL and cells were incubated in the dark at room temperature for 20 min. Thereafter, 100 µL of OD-adjusted PI cells in the mid-log phase were dispensed into each well. Sterile broth and the OD-adjusted inoculum with PI were included as a non-fluorescent control, while sterile broth with PI was included as a sterility control, and melittin was included as membrane depolarization control. All the tests were performed in triplicate, with independent duplicates. Fluorometric readings of the plate were conducted in 4-min intervals over 60 min (readings began ~60 s after cells were added to the plate) using a Tecan Spark at 535 nm excitation wavelength and 617 nm emission wavelength.
(§6) The leakage kinetics or PI permeabilization kinetic was assessed using a rate parameter of ΔPI fluorescence per minute. This was done by fitting linear regression lines on the linear sections, namely 6–16 min for melittin and 6–18 min, as well as 34–50 min for W2-FL10. The rates of PI permeabilization were compared between the three S. aureus strains using a one-way ANOVA with Bonferroni’s post hoc test.

[6] = tested on: S. aureus ATCC 25923; assay: Membrane permeability assay, propidium iodide; type: cell-based, Staphylococcus aureus; conditions: 25 µg/mL
Description: as §5, §6

[7] = tested on: MRSA Xen 30; assay: Membrane permeability assay, propidium iodide; type: cell-based, Staphylococcus aureus; conditions: 25 µg/mL
Description: as §5, §6

[8] = 50% growth inhibition, sigmoidal curve fit, n = 3
[9] = inhibition concentration factor
[10] = ≥90% growth inhibition, OD 600 nm, TSB, 18 h 37°C

CCCCCCCC1CC(=O)N[C@H](CC(C)C)C(=O)N[C@@H](CO)C(=O)N[C@@H]([C@@H](C)O)C(=O)N[C@H](Cc2ccccc2)C(=O)N[C@@H](CC(C)C)C(=O)O1 (stereo partly drawn) [W2-FL10, serrawettin W2-FL10]
IC50 ± SD [1, 8]: 5.4 ± 0.1 (3) µg/mL | Selectivity index ([1]; LC50 (CHO)/IC50): 5.4 | ICF (MIC/IC50)^2 [1, 9]: 5.9 | MIC [1, 10]: 12.5 μg/mL and 12.5 (17.1) μg/mL | IC50 ± SD [2, 8]: 5.2 ± 0.5 (3) µg/mL | Selectivity index ([2]; LC50 (CHO)/IC50): 5.6 | ICF (MIC/IC50)^2 [2, 9]: 5.4 | MIC [2, 10]: 12.5 μg/mL and 12.5 (17.1) μg/mL | IC50 ± SD [3, 8]: 3.2 ± 0.3 (3) µg/mL | Selectivity index ([3]; LC50 (CHO)/IC50): 9.1 | MIC [3, 10]: 6.3 μg/mL and 6.3 (8.5) μg/mL | IC50 ± SD [4, 8]: 3.8 ± 0.2 (3) µg/mL | Selectivity index ([4]; LC50 (CHO)/IC50): 7.6 | ICF (MIC/IC50)^2 [4, 9]: 2.7 | MIC [4, 10]: 6.3 μg/mL and 6.3 (8.5) μg/mL | time within which ≥90% uptake in PI fluorescence was observed [5]: ≤ 2,760 s | time within which ≥90% uptake in PI fluorescence was observed [6]: ≤ 3,360 s | time within which ≥90% uptake in PI fluorescence was observed [7]: ≤ 3,240 s
